Measurements: US11137396B2, “In vitro assays for assessing cell aging” (METAFORA BIOSYSTEMS, priority 2014, dated 2021)

Test system: hMSCs derived from ES cells
Test: XPR1/Glut1 ratio in senescence accelerated-model induced by mitomycin C (RBD labelling, flow cytometry)
Type: cell-based, human
Details: 1 or 10 μg/mL MMC for 3 hours, then 4 additional days; ES-derived hMSC; FIG. 5
Description: 80% confluent hMSCs derived from ES cells were treated for 3 hours with 1 or 10 μg/mL of mitomycin C (MMC, Sigma) or none (control cells). After the pulse of MMC, the cells were washed twice with PBS, detached with TrypLE Express for 5 minutes à 37° C. and re-plated in flasks for 4 additional days at the end of which the cells were detached for RBD labelling and the doubling time (h) was determined by counting.
3·10^4 cells were used for each binding and were transferred into a 96-well V-shape microplate. RBDs were premixed pairwise (Glut1.RBD.mouseFc and Xeno.RBD.rabbitFc) in culture medium containing 0.1% sodium azide and 1 mM EDTA. RBDs were added to hMSCs and incubated at 37° C. for 20 minutes. Cells were washed once with buffer B (PBS/2% FCS/0.1% sodium azide/1 mM EDTA) and then incubated with Alexa Fluor 647 goat anti-rabbit IgG (Life Technologies, 1/1 000) and R-PE goat anti-mouse IgG1 (Life technologies, 1/100) in buffer B. After 30 minutes of incubation at 4° C. in the dark, the cells were washed twice and resuspended in buffer B before flow cytometry analysis. Fluorescent signals were acquired on a FACSVerse flow cytometer (BD Biosciences) with 405, 488 and 640 nm excitation, and data analysis was performed using Flowjo software (Tree Star Inc.).
“Fluorescence minus One” controls were used to establish background level in RBD channels (R-PE and AF647). […]

CO[C@@]12[C@H](COC(N)=O)C3=C(C(=O)C(C)=C(N)C3=O)N1C[C@@H]1N[C@@H]12 [Mitomycin C, mitomycin C]
XPR1/Glut1 ratio normalized to the control condition: increases the XPR1/Glut1 ratio in a dose-dependant manner
